Reference: DBAASP
In brackets after ≈: the same amount, converted by molar mass. Several values for one entry are separate records, joined by “and”; a condition that tells them apart may be missing. Identical values can stand only once.

Tests used:
Assay in all cases: ≥ marks a high value that may be exact or a test limit, other limits are often not marked, values filed in µg/mL are converted to µM
[1] = tested on: Staphylococcus aureus ATCC 43300
[2] = tested on: Klebsiella pneumoniae ATCC 13883
[3] = tested on: Candida albicans ATCC 90028
[4] = tested on: Pseudomonas aeruginosa
[5] = tested on: Klebsiella pneumoniae ATCC BAA-2146
[6] = tested on: Pseudomonas aeruginosa ATCC 27853
[7] = tested on: Acinetobacter baumannii ATCC 19606
[8] = tested on: Acinetobacter baumannii
[9] = tested on: Bacillus subtilis ATCC 6051
[10] = tested on: Escherichia coli ATCC 25922
[11] = tested on: Klebsiella pneumoniae ATCC 700603
[12] = tested on: Klebsiella pneumoniae
[13] = tested on: Cryptococcus neoformans ATCC 208821
[14] = tested on: Escherichia coli W160-37
[15] = tested on: Staphylococcus aureus ATCC 33591
[16] = tested on: Enterococcus faecium ATCC 700221
[17] = tested on: Candida albicans ATCC 200955
[18] = tested on: Staphylococcus aureus
[19] = tested on: Staphylococcus aureus ATCC 700699
[20] = tested on: Escherichia coli ML-35p
[21] = tested on: Staphylococcus aureus ATCC 25923
[22] = tested on: Staphylococcus aureus ATCC 29213
[23] = tested on: Staphylococcus aureus ATCC 33592
[24] = tested on: Escherichia coli MG1655

CC[C@H](C)[C@@H]1NC(=O)CNC(=O)[C@H](CCCN=C(N)N)NC(=O)[C@H](Cc2ccc(O)cc2)NC(=O)[C@@H](NC(=O)[C@@H](NC(=O)[C@H](CCCN=C(N)N)NC(=O)[C@H](Cc2ccccc2)NC(=O)[C@H](C)NC(=O)[C@H](Cc2c[nH]c3ccccc23)NC(=O)[C@@H](N)CCCCN)C(C)C)CSSC[C@@H](C(=O)N[C@@H](Cc2ccc(O)cc2)C(=O)N[C@@H](CCCN=C(N)N)C(=O)N[C@@H](CCCN=C(N)N)C(=O)N[C@@H](C)C(=O)N[C@@H](CCCN=C(N)N)C(=O)O)NC1=O [KWAFRVCYRGICYRRAR] gave an MIC [1] of 3.63 µM (≈ 7.99 µg/mL), an MIC [2] of 0.454 µM (≈ 0.999 µg/mL) and an MIC [3] of 3.63 µM (≈ 7.99 µg/mL). For the same molecule, the MIC [4] was 3.63 µM (≈ 7.99 µg/mL), the MIC [5] was 0.454 µM (≈ 0.999 µg/mL) and the MIC [6] was 0.907 µM (≈ 2 µg/mL). The MIC [7] was 0.113 µM (≈ 0.25 µg/mL), the MIC [8] was 0.227 µM (≈ 0.5 µg/mL) and the MIC [9] was 0.0567 µM (≈ 0.125 µg/mL). For the same molecule, the MIC [10] was 0.113 µM (≈ 0.25 µg/mL), the MIC [11] was 0.454 µM (≈ 0.999 µg/mL) and the MIC [12] was greater than 7.26 µM. The MIC [13] was 0.454 µM (≈ 0.999 µg/mL).

CC[C@H](C)[C@H](NC(=O)[C@H](CCCCN)NC(=O)[C@H](CCCN=C(N)N)NC(=O)[C@@H]1CCCN1C(=O)[C@@H](NC(=O)[C@H](CC(C)C)NC(=O)[C@H](CCCCN)NC(=O)[C@H](CC(C)C)NC(=O)[C@@H](N)Cc1ccccc1)[C@@H](C)CC)C(=O)N[C@H](C(=O)N[C@H](C(=O)N[C@@H](C)C(=O)N[C@@H](CC(C)C)C(N)=O)[C@@H](C)O)C(C)C [FLKLIPRKIVTAL] gave an MIC [14] of no less than 265 µM.

In the case of CC(C)[C@@H]1NC(=O)[C@H](CCCN=C(N)N)NC(=O)[C@H](Cc2ccccc2)NC(=O)[C@@H](NC(=O)[C@H](Cc2c[nH]c3ccccc23)NC(=O)[C@@H](N)CCCCN)CSSC[C@@H](C(=O)N[C@@H](CCCN=C(N)N)C(=O)O)NC(=O)[C@H](CCCN=C(N)N)NC(=O)[C@H](CCCN=C(N)N)NC(=O)[C@H](Cc2ccc(O)cc2)NC(=O)[C@@H]2CSSC[C@H](NC1=O)C(=O)N[C@@H](Cc1ccc(O)cc1)C(=O)N[C@@H](CCCN=C(N)N)C(=O)NCC(=O)NCC(=O)N2 [KWCFRVCYRGGCYRRCR], the MIC [1] is reported as 1.81 µM (≈ 3.99 µg/mL), the MIC [2] is reported as 0.113 µM (≈ 0.25 µg/mL) and the MIC [3] is reported as 3.62 µM (≈ 7.99 µg/mL). It also gave an MIC [4] of 1.81 µM (≈ 3.99 µg/mL), an MIC [5] of 0.904 µM (≈ 2 µg/mL) and an MIC [6] of 0.452 µM (≈ 0.998 µg/mL). For the same molecule, the MIC [7] was 0.226 µM (≈ 0.499 µg/mL), the MIC [8] was 0.226 µM (≈ 0.499 µg/mL) and the MIC [9] was 0.113 µM (≈ 0.25 µg/mL). The MIC [10] was 0.113 µM (≈ 0.25 µg/mL), the MIC [11] was 0.226 µM (≈ 0.499 µg/mL) and the MIC [12] was 3.62 µM (≈ 7.99 µg/mL). The MIC [13] was 0.452 µM (≈ 0.998 µg/mL).

Molecule CC[C@H](C)[C@H](NC(=O)[C@H](Cc1c[nH]c2ccccc12)NC(=O)[C@H](CCCCN)NC(=O)[C@H](CC(C)C)NC(=O)[C@H](CC(C)C)NC(=O)CN)C(=O)N[C@@H](CCCCN)C(=O)N[C@@H](CCCCN)C(=O)N[C@@H](CC(C)C)C(=O)N[C@@H](CC(C)C)C(N)=O [GLLKWIKKLL] has an MIC [15] of 2.5 µM (≈ 3.03 µg/mL), an MIC [6] of 9.5 µM (≈ 11.5 µg/mL) and an MIC [16] of 3.2 µM (≈ 3.87 µg/mL). For the same molecule, the MIC [17] was 3.2 µM (≈ 3.87 µg/mL) and the MIC [10] was 3.2 µM (≈ 3.87 µg/mL).

CC[C@H](C)[C@H](NC(=O)[C@H](Cc1c[nH]c2ccccc12)NC(=O)[C@H](CCCCN)NC(=O)[C@H](CO)NC(=O)[C@H](CC(C)C)NC(=O)[C@H](Cc1ccccc1)NC(=O)[C@@H](NC(=O)[C@H](CCCCN)NC(=O)[C@H](CC(C)C)NC(=O)[C@H](CC(C)C)NC(=O)[C@H](CCCCN)NC(=O)[C@@H]1CCCN1)[C@@H](C)O)C(=O)NCC(=O)O [PKLLKTFLSKWIG] gave an MIC [4] of 19.6 µM (≈ 30 µg/mL), an MIC [14] of 4.57 µM (≈ 7 µg/mL) and an MIC [18] of 3.27 µM (≈ 5 µg/mL).

Molecule CC[C@H](C)[C@@H]1NC(=O)CNC(=O)[C@H](CCCN=C(N)N)NC(=O)[C@H](Cc2ccc(O)cc2)NC(=O)[C@@H]2CSSC[C@H](NC1=O)C(=O)N[C@@H](Cc1ccc(O)cc1)C(=O)N[C@@H](CCCN=C(N)N)C(=O)N[C@@H](CCCN=C(N)N)C(=O)N[C@H](C(=O)N[C@@H](CCCN=C(N)N)C(=O)O)CSSC[C@H](NC(=O)[C@H](Cc1c[nH]c3ccccc13)NC(=O)[C@@H](N)CCCCN)C(=O)N[C@@H](Cc1ccccc1)C(=O)N[C@@H](C)C(=O)N[C@@H](C(C)C)C(=O)N2 [KWCFAVCYRGICYRRCR] has an MIC [1] of 0.229 µM (≈ 0.499 µg/mL), an MIC [2] of 0.0572 µM (≈ 0.125 µg/mL) and an MIC [3] of 1.83 µM (≈ 3.99 µg/mL). The MIC [4] was 0.229 µM (≈ 0.499 µg/mL), the MIC [5] was 0.229 µM (≈ 0.499 µg/mL) and the MIC [6] was 0.115 µM (≈ 0.25 µg/mL). For the same molecule, the MIC [7] was 0.0275 µM (≈ 0.0599 µg/mL), the MIC [8] was 0.0572 µM (≈ 0.125 µg/mL) and the MIC [9] was 0.0137 µM (≈ 0.0299 µg/mL). It also gave an MIC [10] of 0.0572 µM (≈ 0.125 µg/mL), an MIC [11] of 0.229 µM (≈ 0.499 µg/mL) and an MIC [12] of 3.66 µM (≈ 7.99 µg/mL). It also gave an MIC [13] of 0.115 µM (≈ 0.25 µg/mL).

Work on CC(=O)NCC(=O)N[C@@H](Cc1ccccc1)C(=O)N[C@@H](CCCN=C(N)N)C(=O)N[C@@H](CCCCN)C(=O)N[C@@H](Cc1ccccc1)C(=O)N[C@@H](Cc1cnc[nH]1)C(=O)N[C@@H](CCCCN)C(=O)N[C@@H](Cc1ccccc1)C(=O)N[C@@H](Cc1c[nH]c2ccccc12)C(=O)N[C@@H](C)C(N)=O [GFRKFHKFWA] yielded an MIC [19] of no less than 500 µM and an MIC [20] of no less than 500 µM.

For CC[C@H](C)[C@H](NC(=O)[C@H](CCCCN)NC(=O)[C@H](CCCCN)NC(=O)[C@H](CC(C)C)NC(=O)[C@H](CC(C)C)NC(=O)CN)C(=O)N[C@@H](CCCCN)C(=O)N[C@H](C(=O)N[C@@H](CC(C)C)C(=O)N[C@@H](CC(C)C)C(N)=O)[C@@H](C)O [GLLKKIKTLL], the MIC [15] was no less than 512 µM, the MIC [6] was 56.8 µM (≈ 63.9 µg/mL) and the MIC [21] was 19.5 µM (≈ 22 µg/mL). For the same molecule, the MIC [16] was no less than 171 µM and the MIC [17] was no less than 56.8 µM.

CC[C@H](C)[C@H](NC(=O)[C@H](CC(=O)O)NC(=O)[C@H](CCCCN)NC(=O)[C@H](C)NC(=O)[C@H](CC(C)C)NC(=O)CNC(=O)[C@H](CCCCN)NC(=O)[C@H](CC(C)C)NC(=O)[C@@H](NC(=O)[C@H](CC(=O)O)NC(=O)[C@@H](NC(=O)[C@@H](NC(=O)CN)C(C)C)C(C)C)[C@@H](C)CC)C(=O)N[C@@H](C)C(=O)NCC(=O)N[C@@H](Cc1cnc[nH]1)C(=O)N[C@@H](CC(C)C)C(=O)N[C@@H](C)C(=O)N[C@@H](CO)C(=O)N[C@@H](CCCCN)C(=O)N[C@H](C(=O)N[C@@H](CCSC)C(=O)N[C@@H](CC(N)=O)C(=O)N[C@@H](CCCCN)C(=O)N[C@@H](CC(C)C)C(N)=O)C(C)C [GVVDILKGLAKDIAGHLASKVMNKL] gave an MIC [15] of 25 µM (≈ 64.8 µg/mL), an MIC [6] of 100 µM (≈ 259 µg/mL) and an MIC [22] of 50 µM (≈ 130 µg/mL). For the same molecule, the MIC [19] was no less than 50 µM, the MIC [10] was 12.5 µM (≈ 32.4 µg/mL) and the MIC [11] was 50 µM (≈ 130 µg/mL).

Molecule CC[C@H](C)[C@@H]1NC(=O)CNC(=O)[C@H](CCCN=C(N)N)NC(=O)[C@H](Cc2ccc(O)cc2)NC(=O)[C@@H]2CSSC[C@H](NC1=O)C(=O)N[C@@H](Cc1ccc(O)cc1)C(=O)N[C@@H](CCCN=C(N)N)C(=O)N[C@@H](C)C(=O)N[C@H](C(=O)N[C@@H](CCCN=C(N)N)C(=O)O)CSSC[C@H](NC(=O)[C@H](Cc1c[nH]c3ccccc13)NC(=O)[C@@H](N)CCCCN)C(=O)N[C@@H](Cc1ccccc1)C(=O)N[C@@H](CCCN=C(N)N)C(=O)N[C@@H](C(C)C)C(=O)N2 [KWCFRVCYRGICYRACR] has an MIC [1] of 1.83 µM (≈ 3.99 µg/mL), an MIC [2] of 0.115 µM (≈ 0.25 µg/mL) and an MIC [3] of 0.916 µM (≈ 2 µg/mL). It also gave an MIC [4] of 1.83 µM (≈ 3.99 µg/mL), an MIC [5] of 0.458 µM (≈ 0.998 µg/mL) and an MIC [6] of 1.83 µM (≈ 3.99 µg/mL). For the same molecule, the MIC [7] was 0.115 µM (≈ 0.25 µg/mL), the MIC [8] was 0.115 µM (≈ 0.25 µg/mL) and the MIC [9] was 0.0137 µM (≈ 0.0299 µg/mL). The MIC [10] was 0.115 µM (≈ 0.25 µg/mL), the MIC [11] was 0.916 µM (≈ 2 µg/mL) and the MIC [12] was 7.33 µM (≈ 16 µg/mL). The MIC [13] was 0.115 µM (≈ 0.25 µg/mL).

With CC[C@H](C)[C@H](NC(=O)[C@H](Cc1c[nH]c2ccccc12)NC(=O)[C@H](CO)NC(=O)CNC(C)=O)C(=O)N[C@@H](CCCCN)C(=O)N[C@@H](CCCN=C(N)N)C(=O)N[C@@H](CC(C)C)C(=O)N[C@@H](CC(N)=O)C(=O)N[C@@H](CO)C(=O)N[C@@H](Cc1c[nH]c2ccccc12)C(=O)N[C@@H](CC(C)C)C(=O)N[C@@H](CCCN=C(N)N)C(=O)N[C@@H](CCCCN)C(N)=O [GSWIKRLNSWLRK] the MIC [23] was no less than 38.9 µM and the MIC [24] was 4 µM and 8 µM.
